This is an account of results in article PMC10030462, “SB2301-mediated perturbation of membrane composition in lipid droplets induces lipophagy and lipid droplets ubiquitination” (Communications Biology, 2023).

In assay [1] the test system is HeLa human cervical cancer cells. The assay is described as follows: cells. The arrangement: cellular lipid droplet reduction, fluorescence imaging high-content phenotypic screen. Conditions: 24 h, lipid droplet reduction in HeLa; for IC50: read-out: LD reduction (IC50, uM) Potency. How it is done:
The LD reduction activity of these analogues (1–20) was initially evaluated in human cervical cancer HeLa cells at a fixed concentration (10 μM each) to determine the efficacy of LD reduction. In addition, potency was determined by measuring the half-maximal inhibitory concentration (IC50) (Supplementary Table 1). Compounds with high cytotoxicity and low water solubility were excluded during high-content phenotypic screening. […] We also observed a similar pattern of LD reduction in human hepatocellular carcinoma HepG2 cells (Supplementary Fig. 2A) and mouse hepatocyte AML12 cells (Supplementary Fig. 2B). Consistent with the reduction in cellular LDs, the cellular triglyceride (TG) content was reduced in a dose-dependent manner (Fig. 1E). Based on these findings, we conducted a further study to determine the mechanism by which SB2301 reduced cellular LDs.

For assay [2], the target named is T1, PCYT2 (ethanolamine-phosphate cytidylyltransferase 2) (Homo sapiens, UniProt Q99447).
T1 construct: Human PCYT2 (Prospec, enz-221)
In words: SPR (Biacore T100, immobilized human PCYT2, […] fit); also CETSA and TS-FITGE in HepG2 cells. Type of assay: binding.

SMILES strings stand for the structures.

T1 sequence (Q99447 whole entry): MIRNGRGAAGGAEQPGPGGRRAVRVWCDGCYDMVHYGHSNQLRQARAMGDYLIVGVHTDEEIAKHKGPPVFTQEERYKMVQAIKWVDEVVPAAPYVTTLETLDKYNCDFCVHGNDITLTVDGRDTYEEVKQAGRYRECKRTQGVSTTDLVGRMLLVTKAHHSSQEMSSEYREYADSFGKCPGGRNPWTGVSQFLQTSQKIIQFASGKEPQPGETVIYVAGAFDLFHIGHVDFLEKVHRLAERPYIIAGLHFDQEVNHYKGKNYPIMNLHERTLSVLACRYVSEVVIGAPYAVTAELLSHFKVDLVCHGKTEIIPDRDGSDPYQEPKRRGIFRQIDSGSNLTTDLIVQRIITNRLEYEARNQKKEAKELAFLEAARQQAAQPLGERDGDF

In general, inhibition refers to the drop in the measured response relative to a control, in per cent. In general, IC50 refers to the concentration at which inhibition is half-maximal. Consider `Oc1cccc(-c2ccc3nc(-c4cn(-c5ccccc5Cl)nn4)ccc3c2)c1` [compound 10, 10], for which, in assay [1], the inhibition at 10 µM is 2.7% and the IC50 was determined as 10.1 µM.
For the compound `N#Cc1ccccc1-n1cc(-c2ccc3cc(-c4cccc(O)c4)ccc3n2)nn1` [compound 7, 7], in assay [1], the inhibition at 10 µM was 30.4% and the IC50 was determined as 14.8 µM.
For `N#Cc1cccc(-n2cc(-c3ccc4cc(-c5cccc(O)c5)ccc4n3)nn2)c1` [compound 8, 8] the same measures were -7.1% and 27.6 µM.
For `COc1ccc(-n2cc(-c3ccc4cc(-c5cccc(O)c5)ccc4n3)nn2)cc1` [compound 3, 3] the same measures were 19% and 3.7 µM.
On to `Oc1cccc(-c2ccc3nc(-c4cn(-c5ccc(Br)cc5)nn4)ccc3c2)c1` [compound 12, 12], for which, in assay [1], the inhibition at 10 µM worked out at 36.8% and the IC50 is 4.7 µM.
Taken in the same sequence, the figures for `Oc1cccc(-c2ccc3nc(-c4cn(-c5cccc(F)c5)nn4)ccc3c2)c1` [compound 11, 11] were 19.2% and 20.6 µM.
The term Kd denotes the equilibrium constant for the complex coming apart. A low value points to higher affinity. The compound `Oc1cccc(-c2ccc3nc(-c4cn(-c5ccccc5C(F)(F)F)nn4)ccc3c2)c1` [compound 4, SB2301] returned a Kd in assay [2] of around 26 µM. Besides, in assay [1], the inhibition at 10 µM turned out to be 64.5% and the IC50 was 4.4 µM.
`O=[N+]([O-])c1ccccc1-n1cc(-c2ccc3cc(-c4cccc(O)c4)ccc3n2)nn1` [compound 14, 14]: in assay [1], the inhibition at 10 µM was determined as 48.5% and the IC50 was determined as 7.9 µM.
For `Oc1cccc(-c2ccc3nc(-c4cn(-c5ccc(C(F)(F)F)cc5)nn4)ccc3c2)c1` [compound 6, 6] the same measures were 35.9% and 32 µM.
Taken in the same sequence, the figures for `Oc1cccc(-c2ccc3nc(-c4cn(-c5ccccc5O)nn4)ccc3c2)c1` [compound 13, 13] were 12.7% and 11.6 µM.
Taken in the same sequence, the figures for `COc1ccccc1-n1cc(-c2ccc3cc(-c4cccc(O)c4)ccc3n2)nn1` [compound 1, 1] were 50% and 6.7 µM.
